From a melting point compilation (Tetko et al.) come the findings set out here.

As for `CC1C(=O)C23C(O)CC4C(C)(C)CCCC45COC(CC1C2O)C53` (configuration not stated), the melting point fell in the range of 218 to 221 °C.
The compound `CCC(=O)OC(Cc1ccccc1)(c1ccccc1)C(C)CN(C)C` (configuration not stated) displayed a melting point of 75 °C.
The same measure for `O=[N+]([O-])c1cc(C(F)(F)F)cc([N+](=O)[O-])c1O`: 47 to 48 °C; for `Cc1ccccc1C1=Cc2ccccc2C2(OCCO2)O1`: 75 °C; for `Clc1ccc(-c2ccc(Br)nc2)cn1`: 244 °C.
The same measure for `ON=Cc1ccccc1Cl`: 72 to 77 °C.
With `S=C=Nc1ccc(N2CCOCC2)cc1` the figure was 84 to 85 °C; with `Cc1cccc(NC(=O)c2cnc(C(C)(C)C)cn2)c1`, 95 °C; with `CCC=C1CCC2C3CCC4CC(OC(C)=O)CCC4(C)C3CCC12C` (configuration not stated), 114 °C.
Regarding `C=C1C(=O)C23C(OC(C)=O)CC4C5(C)CCCC4(C(OC(C)=O)OC5)C2C(OC(C)=O)CC1C3OC(C)=O` (configuration not stated), the melting point was 224 °C.
The same measure for `CC(=O)C(C(=O)OC1CC(C)CCC1C(C)C)C(C)C(C(C)=O)/C(=N\NC(N)=O)OC1CC(C)CCC1C(C)C` (configuration not stated): 200 °C; for `Cc1ccc(C(=O)CC#N)cc1`: 102 °C.
The same measure for `COCCOc1ccc(CCC(=O)O)cc1N`: 93.5 to 98 °C; for `CC1=C(C(=O)OC(C)(C)C)C(c2ccc3c(c2)OCO3)NC(=O)N1` (configuration not stated): 210 °C; for `O=S1(=O)CC=C(Cl)C1`: 90 to 92 °C.
With `N=C1C=C(NC(=O)c2ccccc2)/C(=N/C(=O)c2ccccc2)C=C1NC(=O)c1ccccc1` the figure was over 330 °C.
In turn, `N=C(N)c1ccc(N)cc1` returned a melting point of 182 °C.
In turn, `CC(C)CCCC(C)C1CCC2C3CC=C4CC(OC(=O)Cc5ccc(N(CCCl)CCCl)cc5)CCC4(C)C3CCC12C` (configuration not stated) registered a melting point of 90 °C.
The same measure for `CC/C=C\C(C)(C)C`: -137 °C; for `O=C(O)c1sccc1Cl`: 186 °C.
With `CCCCCOC(=O)C1=C(C)NC(=O)NC1c1ccc2c(c1)OCO2` (configuration not stated) the figure was 144 °C; with `COC(=N)C1=CC(O)C(O)C(CO)O1` (configuration not stated), 196 °C; with `COc1ccc(C=CC(=O)OCCOc2ccc(C=CC(=O)c3ccccc3)cc2)cc1`, 142 °C.
Take `Cc1ccc(-c2cccc(-c3ccc(C)cc3)n2)cc1`: the melting point is 165 °C.
The same measure for `O=C1NCc2ccccc21`: 151 °C; for `Cc1cc(C(=O)O)c(C)n1C1CC1`: 178 to 185 °C.
The same measure for `CNC(=O)OCc1cccc(COC(=O)NC)n1`: 136 °C; for `CC(=O)C(=Cc1ccccc1)C(=O)OC1CC(C)CCC1C(C)C` (configuration not stated): 133 °C.
For the compound `O=C(NC(Cc1ccc2ccccc2c1)C(=O)O)OCC1c2ccccc2-c2ccccc21` (configuration not stated), the melting point is 191 °C.
With `CCCCCCCCSCCCCCCCC` the figure was 0.5 °C; with `CC(=O)Nc1cc(NS(=O)(=O)C(F)(F)F)c(C)cc1C`, 184 °C; with `CC12CCC(OC=O)CC1CCC1C2CCC2(C)C1CCC2(O)C#Cc1ccccc1` (configuration not stated), 205 °C.
The same measure for `Cc1ccc(-c2c(C#N)c(=O)n3c(sc4ccccc43)c2C(N)=O)cc1`: 199 °C.
With `CCCCCCl` the figure was -60 °C.
On to `CC1CCc2cc(F)cc3c(=O)c(C(=O)O)cn1c23` (configuration not stated), for which the melting point was 253 °C.
With `CC1(C)CC(=O)C2=C(C1)Nc1ccc3ccccc3c1C2c1ccccc1` (configuration not stated) the figure was 314 °C; with `COC(=O)c1ccc(S(=O)(=O)NC(C)(C)C)n1C`, 104 to 105 °C.
With `O=C(C=Cc1ccc(Cl)cc1)c1ccc(Cl)cc1` the figure was 158 °C; with `COc1ccc(C(=O)O)c(C(F)(F)F)c1`, 149 °C.
Take `CC(C)(C)c1ccc(S(=O)(=O)Cl)cc1`: the melting point amounted to 82 °C.
The compound `CC(COc1ccccc1)N(CCCl)Cc1ccccc1` (configuration not stated) had a melting point of 39 °C.
With `N#CC1=Cc2ccccc2C1`, the melting point was 40 °C.
The same measure for `O=S1(=O)CCc2ccccc2CC1`: 153 to 155 °C.
With `c1ccc(C(c2ccccc2)c2ccccn2)cc1` the figure was 54 to 61 °C; with `O=C(O)c1cc(Br)cs1`, 121 °C; with `CCOC(=O)Cc1csc(=S)[nH]1`, 136 to 144 °C.
The same measure for `NC(CS(=O)(=O)c1ccccc1)=NO`: 162 °C.
Take `OCc1csc(-c2ccc(C(F)(F)F)cc2)n1`: the melting point amounted to 107 °C.
`Nc1ccc(C=Cc2ccc(N)cc2OS(=O)(=O)c2ccccc2)c(OS(=O)(=O)c2ccccc2)c1` registered a melting point of 250 °C.
`CCCCCCCCOc1ccc(C(C)=O)cc1` returned a melting point of 30 to 32 °C.
The same measure for `Cc1cc(C)c(CSCc2c(C)cc(C)cc2C)c(C)c1`: 145 to 146 °C; for `O=C(O)c1ccccc1CSc1ccccc1`: 109 to 113 °C; for `N#Cc1c(C(F)(F)F)cc(-c2cccnc2)[nH]c1=O`: 280 to 281 °C.
With `CC1=NCCNc2c1c(=O)n(-c1ccccc1)c1ccccc21` the figure was 221 °C; with `COc1ccc(C(N)=O)cc1[N+](=O)[O-]`, 175 °C; with `O=c1nc2ccccc2nc(C(F)(F)F)c1NNc1cccc2ccccc12`, 171 °C.
With `Cc1nc(-c2ccc(C(=O)Cl)s2)cs1` the figure was 108 to 112 °C.
`CC(=O)Nc1cc(N)ccc1C` came in with a melting point of 141 to 142 °C.
The same measure for `COc1cc(OC)c(C)c(OC)c1`: 28 °C; for `COc1ccc(-c2onc(C(=O)c3cccs3)c2S(=O)(=O)c2ccccc2)cc1`: 120 °C.
As to `COc1cc(N=C=S)cc(OC)c1`, the melting point was found to be 50.5 °C.
With `CC(=O)OC1CCC2C3CCC4CC(CC(=O)O)CCC4(C)C3CCC12C` (configuration not stated) the figure was 151 to 153 °C; with `c1ccc2cc3c(cc2c1)oc1ccccc13`, 202 to 207 °C; with `CC(=O)OCC1(C)CCCC23COC4CC5C(C)C(=O)C6(C(CC12)OC(C)(C)OC56)C43` (configuration not stated), 156 °C.
The same measure for `CC(=O)/C(=C/Nc1ccccc1)Cc1ccccc1`: 132 °C; for `COc1ccc2ccc(=O)oc2c1CC=C(C)C`: 83.5 °C; for `CC(CCC(=O)O)c1ccccc1` (configuration not stated): 13 °C.
In turn, `CCCCCC(O)C=CC1C(O)CC(=O)C1CC=CCCCC(=O)O` (configuration not stated) showed a melting point of 67 °C.
The same measure for `Clc1c2ccccc2nc2ccccc12`: 121 °C.
The same measure for `N=C(Nc1ccccc1)c1ccccc1`: 119 °C.
With `COc1ccccc1F` the figure was -39 °C.
`CCCCCCCCCCCCCCCCCC[Si](OC)(OC)OC` yielded a melting point of 15 °C.
For `Cc1ccc(OP2(=S)Oc3ccc(Cl)cc3Sc3cc(Cl)ccc3O2)c(C)c1`, the melting point was found to be 149 °C.
The compound `Cc1ccc(C#N)c(S(=O)(=O)Cl)c1` registered a melting point of 71 to 73 °C.
With `Nc1ccc(-c2cn3c(n2)SCC3)cc1`, the melting point is 225 to 226 °C.
With `OCC1OC(OC2C(CO)OC(O)(CO)C2O)C(O)C(O)C1O` (configuration not stated) the figure was 176 °C; with `O=C1OC(=O)C23Cc4ccccc4CC12Cc1ccccc1C3` (configuration not stated), 267 to 270 °C.
The same measure for `O=C(OC1OC(COCc2ccccc2)C(OCc2ccccc2)C1OCc1ccccc1)c1ccc([N+](=O)[O-])cc1` (configuration not stated): 92 to 94 °C; for `CC(C)(C)C(CO)CO`: 55 °C.
As for `O=[N+]([O-])c1ccc(Cl)cc1[N+](=O)[O-]`, the melting point lay in the range of 40 to 41 °C.
With `C=CCc1cc(C=O)c(O)c(OC)c1` the figure was 48 to 52 °C; with `Nc1ncnc2c1cnn2CCO`, 218 °C; with `O=C(c1ccc2ccccc2c1)C(O)c1ccccc1` (configuration not stated), 152 °C.
With `O=C(O)CN1CSC(=S)N(Cc2ccccc2)C1` the figure was 152 °C; with `FC(F)CC(F)(F)F`, -102 °C; with `CCN(Cc1ccc(Cl)nc1)C(=C[N+](=O)[O-])NC`, 83.5 °C.
Turning to `CC(C)(C)CC(C)(C)S`, the melting point is -74 °C.
With `COc1ccc2ccc(=O)oc2c1` the figure was 119 °C.
The same measure for `COC(=O)C1CC(=O)N(C)C1` (configuration not stated): 15 °C; for `c1ccc(COc2ccc3cc[nH]c3c2)cc1`: 115 °C; for `ClCc1ccc(-c2nccs2)cc1`: 67 to 69 °C.
The same measure for `CS(=O)(=O)c1noc(-c2cccs2)c1C#N`: 167 to 168 °C; for `COc1cccc(CNC(N)=S)c1`: 91 to 93 °C.
For the compound `COc1cccc(C2C(C(=O)OC(C)C)=C(C)NC(C)=C2C(=O)OC(C)C)c1OC`, the melting point turned out to be 141 °C.
For `CCOC(=O)c1cn[nH]c1NC(=O)Nc1cccc(Cl)c1`, the melting point lay in the range of 257 to 259 °C.
The same measure for `Cc1nc(-c2ccc(S(=O)(=O)Cl)cc2)cs1`: 111 to 112 °C; for `CC1(C)CCC(C)(C)c2cc(S(=O)(=O)Cl)ccc21`: 78 to 80 °C; for `CN(C)C(=O)CCC(=O)O`: 84.5 °C.
Turning to `CC1(C(=O)O)CCCC2(C)c3cc(O)ccc3CCC12` (configuration not stated), the melting point worked out at 194 °C.
The same measure for `CC(=O)Nc1cccc(C(C)=O)c1`: 127 °C; for `O=C(Cl)c1cn(S(=O)(=O)c2ccccc2)c2ccccc12`: 144 °C; for `O=C(C=Cc1ccc(Br)o1)c1ccco1`: 76 to 78 °C.
With `CSc1nc(N)nc(-c2ccccn2)n1` the figure was 193 to 196 °C; with `C1COCCOCCNCCOCCOCCN1`, 111 to 115 °C.
The same measure for `CS(=O)(=O)CCO`: 31 to 33 °C.
`O=C1NC(=O)C([N+](=O)[O-])C(=O)N1`: the melting point came to 180 °C.
The same measure for `CC1=CC(C(=O)O)c2ccccc21` (configuration not stated): 139 °C.

For orientation: melting point means the temperature, or range, at which the solid turns liquid.
